The target in assay [1] is T1, Mitogen-activated protein kinase 14 (Homo sapiens, UniProt Q16539). As to the kind of experiment: (§1) Fluorescence polarisation (FP) assay: FP signals were measured with a PHERAstar microplate reader (BMG Labtech) using black, low-binding half-area 96 well plates (Corning). Each binding data point was carried out in duplicate or triplicate. Data were recorded in millipolarisation (mP) units and measured at an excitation wavelength of 485 nm and an emission wavelength of 520 nm. Tris(hydroxymethyl)aminomethane (Tris) assay buffer was used in all binding experiments and consisted of 10 mM Tris, […], and 3.5 mM 3-((3-cholamidopropyl)dimethylammonium)-1-propanesulfonate (Chaps) at pH 8.0. On the technique in general: Polarisation of emitted light reports the rotation of a fluorescent probe.
T1 sequence (Q16539 whole entry): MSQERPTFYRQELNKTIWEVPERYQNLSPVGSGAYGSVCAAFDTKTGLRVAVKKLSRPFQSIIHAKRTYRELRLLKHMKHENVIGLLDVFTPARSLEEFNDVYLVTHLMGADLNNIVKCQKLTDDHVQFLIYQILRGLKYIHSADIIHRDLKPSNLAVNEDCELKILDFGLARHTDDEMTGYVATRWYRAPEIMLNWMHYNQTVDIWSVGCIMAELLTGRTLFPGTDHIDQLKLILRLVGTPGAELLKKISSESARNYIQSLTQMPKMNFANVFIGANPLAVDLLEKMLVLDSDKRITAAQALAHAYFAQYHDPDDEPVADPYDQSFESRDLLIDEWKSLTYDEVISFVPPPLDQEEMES

Assay [2] deals with T1, Mitogen-activated protein kinase 14. The description is as §1, with “assay for active p38alpha MARK:” for “assay:”, “8.0. The recombinant active His-tag p38α MAPK used in the ligand binding assays were prepared as described by Bukhtiyarova et al.” for “8.0.”.
Assay [3] has the same target. As to the kind of experiment: Each binding data point was carried out in duplicate or triplicate. Data were recorded in millipolarisation (mP) units and measured at an excitation wavelength of 485 nm and an emission wavelength of 520 nm. Tris(hydroxymethyl)aminomethane (Tris) assay buffer was used in all binding experiments and consisted of 10 mM Tris, 50 nM potassium chloride, and 3.5 mM 3-((3-cholamidopropyl)dimethylammonium)-1-propanesulfonate (Chaps) at pH 8.0.

IC50 and Ki data for three compounds are collected here from ChEMBL document CHEMBL5729018, “MAPK inhibitors” (2022).

Usually IC50 stands for the point on the concentration scale where inhibition reaches its midpoint. Higher therefore signals weaker potency. `OCCC#Cc1nc(-c2ccc(F)cc2)c(-c2ccncc2)n1CCCc1ccccc1` [RWJ-67657]: the IC50 in assay [1] worked out at 30 nM.

Broadly, the Ki is a measure of affinity in units of concentration, obtained from inhibition or displacement. In the case of `OCCC#Cc1cc(-c2ccncc2)c(-c2ccc(F)cc2)s1`, the Ki was 560 nM in assay [2] and 2000 nM in assay [3]. In assay [1], this compound returned an IC50 of 160 nM.

For the compound `OCC#Cc1cc(-c2ccncc2)c(-c2ccc(F)cc2)s1`, the figures for the Ki in assay [2] and in assay [3] were 630 nM and 2100 nM, respectively.
